Eleven compounds from US8546440B2, “Substituted bicyclic imidazole derivatives as gamma secretase modulators” (Janssen Pharmaceuticals, Inc., priority 2008, dated 2013) can be followed below.

One data set deals with Aβtotal. As to the kind of experiment: Demonstration of in vivo efficacy: Aβtotal lowering in brain after single oral dose (Table 13). The settings on record: mouse brain soluble fraction, mean, compared to untreated animals. From the text: To determine whether acute administration of an Aβ42 lowering agent would reduce Aβ42 levels in vivo, non-transgenic rodents, e.g. mice or rats were used. Alternatively, two to three month old Tg2576 mice expressing APP695 containing the “Swedish” variant can be used or a transgenic mouse model developed by Dr. Fred Van Leuven (K. U. Leuven, Belgium) and co-workers, with neuron-specific expression of a clinical mutant of the human amyloid precursor protein [V717I] (Moechars et al., 1999 J. Biol. Chem. 274, 6483). Young transgenic mice have high levels of Aβ in the brain but no detectable Aβ deposition. At approximately 6-8 months of age, the transgenic mice start to display spontaneous, progressive accumulation of β-amyloid (Aβ) in the brain, eventually resulting in amyloid plaques within the subiculum, hippocampus and cortex. Animals treated with the Aβ42 lowering agent were examined and compared to those untreated or treated with vehicle and brain levels of soluble Aβ42 and total Aβ would be quantitated by standard techniques, for example, using ELISA. Treatment periods varied from hours to days and were adjusted based on the results of the Aβ42 lowering once a time course of onset of effect could be established.
A typical protocol for measuring Aβ42 lowering in vivo is shown but it is only one of many variations that could be used to optimize the levels of detectable Aβ. For example, Aβ42 lowering compounds were formulated in 20% of Captisol® (a sulfobutyl ether of β-cyclodextrin) in water or 20% hydroxypropyl β cyclodextrin. The Aβ42 lowering agents were administered as a single oral dose or by any acceptable route of administration to overnight fasted animals. After four hours, the animals were sacrificed and Aβ42 levels were analysed.
Blood was collected by decapitation and exsanguinations in EDTA-treated collection tubes. Blood was centrifuged at 1900 g for 10 minutes at 4° C. and the plasma recovered and flash frozen for later analysis. The brain was removed from the cranium and hindbrain. The cerebellum was removed and the left and right hemisphere were separated. The left hemisphere was stored at −18° C. for quantitative analysis of test compound levels. The right hemisphere was rinsed with phosphate-buffered saline (PBS) buffer and immediately frozen on dry ice and stored at −80° C. until homogenization for biochemical assays.
Mouse brains were resuspended in 10 volumes of 0.4% DEA (diethylamine)/50 mM NaCl pH 10 (for non-transgenic animals) or 0.1% 3-[3-cholamidopropyl)-dimethyl-ammonio]-1-propanesulfonate (CHAPS) in tris buffered saline (TBS) (for transgenic animals) containing protease inhibitors (Roche-11873580001 or 04693159001) per gram of tissue, e.g. for 0.158 g brain, add 1.58 ml of 0.4% DEA. All samples were sonicated for 30 seconds on ice at 20% power output (pulse mode). Homogenates were centrifuged at 221.300×g for 50 min. The resulting high speed supernatants were then transferred to fresh tubes and were optionally further purified before the next step. A portion of the supernatant was neutralized with 10% 0.5 M Tris-HCl and this was used to quantify Aβtotal. […]
In this model at least 20% Aβ42 lowering compared to untreated animals would be advantageous.

By melting point is commonly meant the temperature, or range, at which the solid turns liquid.

For `COc1cc(Nc2cccn3c(Cl)c(-c4ccc(F)cc4)nc23)ccc1-n1cnc(C)c1` [Compound 2], the melting point came to 168.9 °C. For the same compound, the “Aβtotal (% Ctrl)_Mean” value in the data set with Aβtotal came out at 106 % Ctrl. On the same counts, the results for `COc1cc(Nc2cccn3c(C)c(-c4ccccc4Cl)nc23)ccc1-n1cnc(C)c1` [Compound 15] are 204 °C and 94 % Ctrl. Consider `COc1cc(Nc2cccn3cc(C)nc23)ccc1-n1cnc(C)c1` [Compound 50], for which the “Aβtotal (% Ctrl)_Mean” value in the data set with Aβtotal worked out at 96 % Ctrl. Same read-out and setting: in the case of `COc1cc(Nc2cccn3cc(C4CCOCC4)nc23)ccc1-n1cnc(C)c1` [Compound 4] it was 111 % Ctrl; in that of `COc1cccc(-c2cn3cccc(Nc4ccc(-n5cnc(C)c5)c(OC)c4)c3n2)c1` [Compound 33], 98 % Ctrl; in that of `COc1nc(Nc2cccn3c(C)c(-c4ccccc4C(F)(F)F)nc23)ccc1-n1cnc(C)c1` [Compound 138], 102 % Ctrl. `COc1cc(Nc2cccn3cc(-c4ccc(F)cc4)nc23)ccc1-n1cnc(C)c1` [Compound 1] had a melting point of 209.2 °C. In addition, the “Aβtotal (% Ctrl)_Mean” value with Aβtotal came out at 103 % Ctrl. Regarding `COc1cc(Nc2cccn3c(C)c(-c4c(F)cccc4F)nc23)ccc1-n1cnc(C)c1` [Compound 27], the melting point stood at 198.2 °C. Besides, the “Aβtotal (% Ctrl)_Mean” value with Aβtotal is on record as 94 % Ctrl. Compound `COc1cc(Nc2cccn3c(C)c(-c4ccccc4)nc23)ccc1-n1cnc(C)c1` [Compound 5] registered a melting point of 177.8 °C. The “Aβtotal (% Ctrl)_Mean” value in the data set with Aβtotal worked out at 96 % Ctrl. Take `Cc1ncn(-c2ccc(Nc3cccn4cc(-c5ccccc5C)nc34)cc2)n1` [Compound 71]: the “Aβtotal (% Ctrl)_Mean” value in the data set on Aβtotal amounted to 103 % Ctrl.

For the compound `COc1cc(Nc2cccn3c(C)c(-c4ccccc4C(F)(F)F)nc23)ccc1-n1cnc(C)c1` [Compound 29], the “Aβtotal (% Ctrl)_Mean” value in the data set on Aβtotal amounted to 86 % Ctrl.
